23 compounds from US8435978B2, “Substituted sulfonamide compounds” (Gruenenthal GmbH, priority 2006, dated 2013) can be followed below.

Broadly, the inhibition is the relative decrease from the control value, in per cent.

One assay deals with T1, human B1R receptor (Homo sapiens, UniProt P46663).
T1 construct: host or cells: CHO K1 cells (Chinese hamster ovary), stably transfected
T1 sequence (P46663 1-353): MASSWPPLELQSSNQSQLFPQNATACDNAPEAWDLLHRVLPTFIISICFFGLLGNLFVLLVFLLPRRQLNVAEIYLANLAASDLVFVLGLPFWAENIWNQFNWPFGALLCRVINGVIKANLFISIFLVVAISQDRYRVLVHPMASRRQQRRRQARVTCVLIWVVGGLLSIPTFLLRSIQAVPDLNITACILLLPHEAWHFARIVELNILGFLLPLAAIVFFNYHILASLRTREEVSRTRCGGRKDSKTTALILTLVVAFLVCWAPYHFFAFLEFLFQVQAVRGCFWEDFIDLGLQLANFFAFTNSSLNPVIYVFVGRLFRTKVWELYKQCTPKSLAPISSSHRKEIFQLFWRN
As to the kind of experiment: Functional study on the bradykinin receptor 1 (B1R), FLIPR Ca2+ assay, hB1R cells. It is filed as cell-based. To be noted: CHO-K1, test substance 10 μM, agonist Lys-Des-Arg9-bradykinin 0.5 nM, % inhibition compared with the maximum achievable inhibition, read-out: B1R Antagonism, human [10 μM] % Inhibition. In outline:
(§1)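 Readout: peak Fluo-4 Ca2+ fluorescence, FLIPR. Stable CHO K1 hB1R or rB1R cells; cpd 10 μM, 10 min preincubation, then agonist (hB1R: Lys-Des-Arg9-BK 0.5 nM; rB1R: Des-Arg9-BK 100 nM). Value = % inhibition relative to maximal achievable inhibition.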

Another assay addresses T2, B1R receptor of the rat (Rattus norvegicus, UniProt P97583).
T2 construct: host or cells: CHO K1 cells (Chinese hamster ovary), stably transfected
T2 sequence (P97583 1-337): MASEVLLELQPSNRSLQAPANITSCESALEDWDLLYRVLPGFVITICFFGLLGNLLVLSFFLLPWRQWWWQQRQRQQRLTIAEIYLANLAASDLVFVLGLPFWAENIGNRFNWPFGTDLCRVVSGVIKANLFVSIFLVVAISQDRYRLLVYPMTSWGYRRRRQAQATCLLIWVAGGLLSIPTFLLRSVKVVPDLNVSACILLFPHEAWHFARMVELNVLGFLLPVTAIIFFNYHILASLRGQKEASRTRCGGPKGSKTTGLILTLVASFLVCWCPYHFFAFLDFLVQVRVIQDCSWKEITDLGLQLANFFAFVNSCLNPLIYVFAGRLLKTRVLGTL
The assay can be described thus: Functional study on the bradykinin receptor 1 (B1R), FLIPR Ca2+ assay, rB1R cells. It is filed as cell-based. To be noted: CHO-K1, test substance 10 μM, agonist Des-Arg9-bradykinin 100 nM, % inhibition compared with the maximum achievable inhibition, read-out: B1R Antagonism, rat [10 μM] % Inhibition. In outline:
as §1

For `O=C(COCC1CCCCN1S(=O)(=O)c1c(Cl)cccc1Cl)N1CCN(c2cccc(C(F)(F)F)c2)CC1` (stereo not shown) [Example 481, 2-((1-(2,6-dichlorophenylsulfonyl)piperidin-2-yl)methoxy)-1-(4-(3-(trifluoromethyl)phenyl)piperazin-1-yl)ethanone], the inhibition at 10 µM was 72.6% on human B1R receptor and 104% at B1R receptor of the rat.
For `CCN(Cc1ccncc1)C(=O)COCC1CCCCN1S(=O)(=O)c1c(Cl)cccc1Cl` (stereo not shown) [Example 482, 2-((1-(2,6-dichlorophenylsulfonyl)piperidin-2-yl)methoxy)-N-ethyl-N-(pyridin-4-ylmethyl)acetamide], in that order: 97.9% and 102%.
With `CN1CCCN(C(=O)COCC2CCCCN2S(=O)(=O)c2c(Cl)cccc2Cl)CC1` (stereo not shown) [Example 483, 2-((1-(2,6-dichlorophenylsulfonyl)piperidin-2-yl)methoxy)-1-(4-methyl-1,4-diazepan-1-yl)ethanone], the values for the inhibition at 10 µM at human B1R receptor and on B1R receptor of the rat were 103% and 104%, respectively.
For `O=C(COCC1CCCCN1S(=O)(=O)c1c(Cl)cccc1Cl)N1CCN(c2ccc(C(F)(F)F)cn2)CC1` (stereo not shown) [Example 484, 2-((1-(2,6-dichlorophenylsulfonyl)piperidin-2-yl)methoxy)-1-(4-(5-(trifluoromethyl)pyridin-2-yl)piperazin-1-yl)ethanone], in that order: 75.6% and 101%.
`O=C(COCC1CCCCN1S(=O)(=O)c1c(Cl)cccc1Cl)N(Cc1ccccc1)c1ccccn1` (stereo not shown) [Example 486, N-benzyl-2-((1-(2,6-dichlorophenylsulfonyl)piperidin-2-yl)methoxy)-N-(pyridin-2-yl)acetamide]: the inhibition at 10 µM was found to be 70.4% at human B1R receptor and 101% on B1R receptor of the rat.
For the compound `Cc1ccc2[nH]c(C3CCN(C(=O)COCC4CCCCN4S(=O)(=O)c4c(Cl)cccc4Cl)CC3)nc2c1` (stereo not shown) [Example 487, 2-((1-(2,6-dichlorophenylsulfonyl)piperidin-2-yl)methoxy)-1-(4-(5-methyl-1H-benzo[d]imidazol-2-yl)piperidin-1-yl)ethanone], the inhibition at 10 µM on human B1R receptor was 101%; on B1R receptor of the rat, 99.1%.
For `O=C(COCC1CCCCN1S(=O)(=O)c1c(Cl)cccc1Cl)NC1CCN(Cc2ccccc2)CC1` (stereo not shown) [Example 488, N-(1-benzylpiperidin-4-yl)-2-((1-(2,6-dichlorophenylsulfonyl)piperidin-2-yl)methoxy)acetamide], the inhibition at 10 µM was found to be 101% on human B1R receptor and 102% on B1R receptor of the rat.
As for `CN(C)CCN(Cc1ccccc1)C(=O)COCC1CCCCN1S(=O)(=O)c1c(Cl)cccc1Cl` (stereo not shown) [Example 489, N-benzyl-2-((1-(2,6-dichlorophenylsulfonyl)piperidin-2-yl)methoxy)-N-(2-(dimethylamino)ethyl)acetamide], the inhibition at 10 µM on human B1R receptor is 99.3%; on B1R receptor of the rat, 100%.
For `CCc1ccc(CC2CCCN2C(=O)COCC2CCCN2S(=O)(=O)c2c(C)cc(OC)cc2C)nc1` (stereo not shown) [Example 490, 1-(2-((5-ethylpyridin-2-yl)methyl)pyrrolidin-1-yl)-2-((1-(4-methoxy-2,6-dimethylphenylsulfonyl)pyrrolidin-2-yl)methoxy)ethanone], in that order: 93.5% and 103%.
Take `COc1cc(C)c(S(=O)(=O)N2CCCC2COCC(=O)N2CCN(c3ccccc3OC)CC2)c(C)c1` (stereo not shown) [Example 491, 2-((1-(4-methoxy-2,6-dimethylphenylsulfonyl)pyrrolidin-2-yl)methoxy)-1-(4-(2-methoxyphenyl)piperazin-1-yl)ethanone]: the inhibition at 10 µM at human B1R receptor turned out to be 96.3%; at B1R receptor of the rat it was 97.9%.
As for `COc1cc(C)c(S(=O)(=O)N2CCCC2COCC(=O)N2CCN(CC3CCCCC3)CC2)c(C)c1` (stereo not shown) [Example 492, 1-(4-(cyclohexylmethyl)piperazin-1-yl)-2-((1-(4-methoxy-2,6-dimethylphenylsulfonyl)pyrrolidin-2-yl)methoxy)ethanone], the inhibition at 10 µM stood at 103% on human B1R receptor and 104% at B1R receptor of the rat.
Take `COc1cc(C)c(S(=O)(=O)N2CCCC2COCC(=O)Nc2ccc(N3CCOCC3)c(Cl)c2)c(C)c1` (stereo not shown) [Example 493, N-(3-chloro-4-morpholinophenyl)-2-((1-(4-methoxy-2,6-dimethylphenylsulfonyl)pyrrolidin-2-yl)methoxy)acetamide]: the inhibition at 10 µM at human B1R receptor stood at 40.6%; on B1R receptor of the rat it was 99.5%.
`COc1cc(C)c(S(=O)(=O)N2CCCC2COCC(=O)Nc2ccc3c(c2)ncn3C)c(C)c1` (stereo not shown) [Example 494, 2-((1-(4-methoxy-2,6-dimethylphenylsulfonyl)pyrrolidin-2-yl)methoxy)-N-(1-methyl-1H-benzo[d]imidazol-5-yl)acetamide]: the inhibition at 10 µM at human B1R receptor worked out at 26.2%; at B1R receptor of the rat, 73.4%.
As for `COc1cc(C)c(S(=O)(=O)N2CCCC2COCC(=O)NCC(c2ccc(C(F)(F)F)cc2)N(C)C)c(C)c1` (stereo not shown) [Example 495, N-(2-(dimethylamino)-2-(4-(trifluoromethyl)phenyl)ethyl)-2-((1-(4-methoxy-2,6-dimethylphenylsulfonyl)pyrrolidin-2-yl)methoxy)acetamide], the figures for the inhibition at 10 µM on human B1R receptor and at B1R receptor of the rat were 30.7% and 95.7%, respectively.
For `COc1cc(C)c(S(=O)(=O)N2CCCC2COCC(=O)NCC(c2ccc(C(F)(F)F)cc2)N2CCCC2)c(C)c1` (stereo not shown) [Example 496, 2-((1-(4-methoxy-2,6-dimethylphenylsulfonyl)pyrrolidin-2-yl)methoxy)-N-(2-(pyrrolidin-1-yl)-2-(4-(trifluoromethyl)phenyl)ethyl)acetamide], in that order: 68.2% and 103%.
As to `O=C(COCC1CCCCN1S(=O)(=O)c1c(Cl)cccc1Cl)N1CCCC1c1cccnc1` (stereo not shown) [Example 497, 2-((1-(2,6-dichlorophenylsulfonyl)piperidin-2-yl)methoxy)-1-(2-(pyridin-3-yl)pyrrolidin-1-yl)ethanone], the figures for the inhibition at 10 µM on human B1R receptor and at B1R receptor of the rat were 66% and 101%, respectively.
For `COc1ccccc1N1CCN(C(=O)COCC2CCCCN2S(=O)(=O)c2c(Cl)cccc2Cl)CC1` (stereo not shown) [Example 498, 2-((1-(2,6-dichlorophenylsulfonyl)piperidin-2-yl)methoxy)-1-(4-(2-methoxyphenyl)piperazin-1-yl)ethanone], the inhibition at 10 µM on human B1R receptor is 94.2%; at B1R receptor of the rat, 96.7%.
In the case of `O=C(COCC1CCCCN1S(=O)(=O)c1c(Cl)cccc1Cl)N1CCN(CC2CCCCC2)CC1` (stereo not shown) [Example 499, 1-(4-(cyclohexylmethyl)piperazin-1-yl)-2-((1-(2,6-dichlorophenylsulfonyl)piperidin-2-yl)methoxy)ethanone], the figures for the inhibition at 10 µM at human B1R receptor and at B1R receptor of the rat were 103% and 101%, respectively.
Consider `COc1cc(C)c(S(=O)(=O)N2CCCC2COCC(=O)NC(CN2CCOCC2)c2ccccc2)c(C)c1` (stereo not shown) [Example 500, 2-((1-(4-methoxy-2,6-dimethylphenylsulfonyl)pyrrolidin-2-yl)methoxy)-N-(2-morpholino-1-phenylethyl)acetamide], for which the values for the inhibition at 10 µM on human B1R receptor and at B1R receptor of the rat were 41.8% and 93.2%, respectively.
Take `COc1cc(C)c(S(=O)(=O)N2CCCC2COCC(=O)Nc2ccc3cnn(C)c3c2)c(C)c1` (stereo not shown) [Example 501, 2-((1-(4-methoxy-2,6-dimethylphenylsulfonyl)pyrrolidin-2-yl)methoxy)-N-(1-methyl-1H-indazol-6-yl)acetamide]: the inhibition at 10 µM on human B1R receptor is 65.1%; on B1R receptor of the rat it was 89.7%.
Turning to `COc1cc(C)c(S(=O)(=O)N2CCCC2COCC(=O)NCC(c2ccccc2Cl)N2CCCC2)c(C)c1` (stereo not shown) [Example 502, N-(2-(2-chlorophenyl)-2-(pyrrolidin-1-yl)ethyl)-2-((1-(4-methoxy-2,6-dimethylphenylsulfonyl)pyrrolidin-2-yl)methoxy)acetamide], the inhibition at 10 µM worked out at 96.7% on human B1R receptor and 103% at B1R receptor of the rat.
In the case of `COc1cc(OC)cc(N2CCN(C(=O)COCC3CCCN3S(=O)(=O)c3c(C)cc(OC)cc3C)CC2)c1` (stereo not shown) [Example 503, 1-(4-(3,5-dimethoxyphenyl)piperazin-1-yl)-2-((1-(4-methoxy-2,6-dimethylphenylsulfonyl)pyrrolidin-2-yl)methoxy)ethanone], the inhibition at 10 µM at human B1R receptor stood at 103%; on B1R receptor of the rat, 97.9%.
With `COc1cc(C)c(S(=O)(=O)N2CCCC2COCC(=O)Nc2nc3ccccc3n2C)c(C)c1` (stereo not shown) [Example 504, 2-((1-(4-methoxy-2,6-dimethylphenylsulfonyl)pyrrolidin-2-yl)methoxy)-N-(1-methyl-1H-benzo[d]imidazol-2-yl)acetamide], the inhibition at 10 µM stood at 24.2% at human B1R receptor and 90.6% on B1R receptor of the rat.
